Experimental data published in PMC11851451 (2025).

Experiments:
[1] = test system: d(5'-GCTGCGTTAACGCAGC-3')2 (DNA, duplex) GCTGCGTTAACGCAGC; test: X-ray crystallography, low resolution; conditions: antiparallel stacked dimer in minor groove; not deposited
[2] = test system: TTAA hairpin (ESI-MS, CD) (DNA, hairpin) CGTTAAGCTTTCTTAACG; test: competition ESI-MS; conditions: NH4+ 100 mM (ammonium acetate); 10% methanol, pH 6.8; AATT and TTAA 10 μM each, compound 20 μM
[3] = test system: TTAA hairpin (ESI-MS, CD) (DNA, hairpin) CGTTAAGCTTTCTTAACG; test: circular dichroism titration; conditions: Na+ 100 mM; 50 mM Tris-HCl, 1 mM EDTA, pH 7.4, 25 °C; DNA 5 μM
[4] = test system: AATT hairpin, 5'-biotin (SPR) (DNA, hairpin) CGAAATTGCCTCTGCAATTCG; test: biosensor SPR, steady-state one-site fit; conditions: Na+ 100 mM (Table 1 note 10 mM), 50 mM Tris-HCl, 1 mM EDTA
[5] = test system: AATT hairpin (ESI-MS, CD) (DNA, hairpin) CGAAATTGCCTCTGCAATTCG; test: competition ESI-MS; conditions: NH4+ 100 mM (ammonium acetate); 10% methanol, pH 6.8; AATT and TTAA 10 μM each, compound 20 μM
[6] = test system: d(5'-GCTGCGTTAACGCAGC-3')2 (DNA, duplex) GCTGCGTTAACGCAGC; test: X-ray crystallography, 1.5 Å; conditions: Ca2+ 600 mM (CaCl2, well); HEPES, PEG 400; antiparallel stacked dimer in minor groove
[7] = test system: TATA hairpin, 5'-biotin (SPR) (DNA, hairpin) CCTATAGTTTTCTATAGG; test: biosensor SPR; conditions: Na+ 100 mM (Table 1 note 10 mM); printed as 'Very weak binder'; 50 mM Tris-HCl, 1 mM EDTA, 0.05% P20, pH 7.4; up to 1000 nM
[8] = test system: TTAA hairpin, 5'-biotin (SPR) (DNA, hairpin) CGTTAAGCTTTCTTAACG; test: biosensor SPR, steady-state fit; conditions: Na+ 100 mM (Table 1 note 10 mM); 50 mM Tris-HCl, 1 mM EDTA, 0.05% P20, pH 7.4
[9] = test system: AATT hairpin, 5'-biotin (SPR) (DNA, hairpin) CGAAATTGCCTCTGCAATTCG; test: biosensor SPR, one-site kinetic fit; conditions: Na+ 100 mM (Table 1 note 10 mM); 50 mM Tris-HCl, 1 mM EDTA, 0.05% P20, pH 7.4
[10] = test system: TATA hairpin, 5'-biotin (SPR) (DNA, hairpin) CCTATAGTTTTCTATAGG; test: biosensor SPR, steady-state fit; conditions: Na+ 100 mM (Table 1 note 10 mM); 50 mM Tris-HCl, 1 mM EDTA, 0.05% P20, pH 7.4
[11] = test system: TATA hairpin, 5'-biotin (SPR) (DNA, hairpin) CCTATAGTTTTCTATAGG; test: biosensor SPR, steady-state two-site fit; conditions: Na+ 100 mM; 50 mM Tris-HCl, 1 mM EDTA, pH 7.4; site 1 of 2; KA2 2.6 × 10^6; Table 1 KA 4.2 × 10^6
[12] = test system: AATT hairpin, 5'-biotin (SPR) (DNA, hairpin) CGAAATTGCCTCTGCAATTCG; test: biosensor SPR, one-site fit; conditions: Na+ 100 mM (Table 1 note 10 mM); 50 mM Tris-HCl, 1 mM EDTA, 0.05% P20, pH 7.4
[13] = test system: TTAA hairpin, 5'-biotin (SPR) (DNA, hairpin) CGTTAAGCTTTCTTAACG; test: biosensor SPR, steady-state two-site fit; conditions: Na+ 100 mM; 50 mM Tris-HCl, 1 mM EDTA, pH 7.4; site 1 of 2; KA2 5.5 × 10^6; Table 1 KA 6.9 × 10^6

| Compound | binding [2] | binding [3] | KA ([4]; 0.05% P20, pH 7.4) | binding [5] | KA [8] | other results |
| --- | --- | --- | --- | --- | --- | --- |
| N=C(N)c1ccc2[nH]c(-c3ccc(-c4ccc(C(=N)N)o4)o3)nc2c1 | yes | yes | 2.1e+06 M⁻¹ |  |  | binding [1]: yes |
| N=C(N)c1ccc2[nH]c(-c3ccc(-c4ccc(C(=N)N)s4)o3)nc2c1 | yes | yes | 6.2e+06 M⁻¹ | weak |  | binding [6]: yes |
| N=C(N)c1ccc2[nH]c(-c3ccc(-c4ccc(C(=N)N)s4)s3)nc2c1 | weak | yes |  | yes | 1.6e+06 M⁻¹ | binding [7]: weak; KA [9]: 2.4e+08 M⁻¹ |
| N=C(N)c1ccc2cc(-c3ccc(-c4ccc(C(=N)N)o4)o3)[nH]c2c1 |  | yes | 7.3e+06 M⁻¹ |  |  |  |
| N=C(N)c1ccc2cc(-c3ccc(-c4ccc(C(=N)N)o4)s3)[nH]c2c1 |  |  | 6.7e+07 M⁻¹ |  | 2.8e+06 M⁻¹ | KA [10]: 5.2e+06 M⁻¹ |
| N=C(N)c1ccc2cc(-c3ccc(-c4ccc(C(=N)N)s4)o3)[nH]c2c1 |  | yes | 6.5e+06 M⁻¹ |  |  |  |
| N=C(N)c1ccc2cc(-c3ccc(-c4ccc(C(=N)N)s4)s3)[nH]c2c1 |  |  |  |  |  | KA1 [11]: 6.9e+06 M⁻¹; KA [12]: 1.5e+08 M⁻¹; KA1 [13]: 8.8e+06 M⁻¹ |
| N=C(N)c1ccc2nc(-c3ccc(-c4ccc(C(=N)N)o4)s3)[nH]c2c1 | weak | yes |  | yes | 1e+06 M⁻¹ | KA ([4]; 0.05% P20, pH 7.4 buffer, text b17 prints 3.0 × 10^7): 3.5e+07 M⁻¹; KA [10]: 700000 M⁻¹ |
